In patent US12686657B2, “Anti-inflammatory carboxamide derivatives” (BIOMEDCODE HELLAS SA, priority 2021, dated 2026):

How the values were obtained:
Type in all cases: cell-based, mice
[1] = tested on: hTNFtg SFs; assay: Legendplex pro-inflammatory chemokine panel on hTNFTg synovial fibroblasts
Procedure: SFs were isolated as previously described by Armaka et al., 2009, from the ankle joints of hTNFtg or CBA/C57BL6 wild type (wt) littermates. Briefly, ankle joints were digested with Collagenase IV (Sigma Aldrich, C5138) for 45 minutes at a 37° C. shaking waterbath and after 5 days in culture at 37° C. and 5% CO2, a depletion of CD45+ lineage cells was performed using a Biotin anti-mouse CD45 Antibody (Biolegend, 103104) and Dynabeads™ Biotin Binder (ThermoFisher 11047), according to the manufacturer's protocol. After 10 days in culture, SFs were seeded overnight (O/N) at a concentration of 2×10^4 cells/well in a 96 well plate in 1×DMEM, supplemented with 100 U/ml Penicillin Streptomycin (P/S) and 10% Fetal Bovine Serum (FBS). The next day the cells were synchronized by starvation that included their O/N plating in low serum medium (0.5% FBS). Following the O/N starvation, the hTNFg and the WT SFs were treated with different concentrations of the experimental compounds. The SFs were at the same time activated with 10 ng/ml hTNF (Peprotech, 300-01A). 48 h following the treatment the cell culture supernatants were collected and analyzed by ELISA (R&S Systems, Duoset, DY478 and DY760) according to the manufacturer's protocol, for the detection of CCL5/Rantes and CCL20/Mip3, two known inflammatory chemokines. The IC50 values were determined as the concentration of the compounds required to reduce the levels of secreted CCL5 and CCL20 by 50%.
The supernatants of the SFs were also analyzed using the Mouse pro-inflammatory chemokine panel from Legendplex™ (Biolegend, 740007), according to manufacturer's instructions, for the simultaneous detection of 13 Mouse chemokines.
The anti-inflammatory potential of the test compounds 51, 52, 53, E and F on SFs was also assessed using the Mouse pro-inflammatory chemokine panel from Legendplex that allows the simultaneous detection of 13 Mouse chemokines. The effect of compound 51 on SFs was assessed at a dose of 25 μM, while the effect of the test compounds 52, 53, E and F was assessed at a dose of 10 μM. Numbers represent percentages of the chemokine levels secreted from the treated SFs compared to 100% levels of the chemokines detected in the untreated cells (i.e. either hTNFTg SFs or hTNF-activated wt SFs).
Table 9 summarizes the effect of the test compounds 51, 52 and 53, E and F on the inflammatory chemokines secreted from activated SFs. WT SFs were stimulated with 10 ng/ml hTNF.

[2] = tested on: LPS activated thioglyclolate peritoneal macrophages; assay: Cytokines and chemokines secreted from LPS activated thioglycolate peritoneal macrophages (Legendplex panels); settings: for GMCSF level, percentage of untreated control cells / IL1α level, percentage of untreated control cells / IL6 level, percentage of untreated control cells / IL12p70 level, percentage of untreated control cells / IL27 level, percentage of untreated control cells / MCP1 level, percentage of untreated control cells / MIP1β level, percentage of untreated control cells / CCL5 level, percentage of untreated control cells / MDC level, percentage of untreated control cells / MIP1α level, percentage of untreated control cells: 10 μM compound, 48 h; for IC50: Mus musculus, Peritoneal macrophage, read-out: IL6 IC50
Procedure: Activated peritoneal macrophages were isolated from the peritoneal lavage of C57BL/6 wild type mice, 5 days after the peritoneal administration of 3% Thioglucolate, as described in Jiménez-García et al., 2015. The isolated cells were seeded at a concentration of 5×10^5 cells/well in a 48 well plate. 4 h after isolation, cells were starved O/N in Optimem (Gibco, 11058, 100 U/ml P/S). The cells were further activated with 100 ng/ml Lipopolysaccharide (LPS, Sigma-Aldrich, L2630) along with the test compounds at a dose of 10 μM. 48 h later the supernatants of the cell cultures were collected and analyzed using the Mouse 13 plex Legendplex Chemokine (Biolegend, 740007) and Cytokine (Bioloegend, 740446) panels according the manufacturer's instructions.
The same protocol was repeated reducing the concentration of LPS to 10 ng/ml in order to determine the efficiency of the tested compounds.
In order to assess the anti-inflammatory activity of the compounds of the invention, their ability to reduce the levels of secreted cytokines and chemokines from activated macrophages, which are key inflammatory cells of the immune system, was measured. Test compounds 51, 52 and 53, E and F were tested at a dose of 10 μM on LPS induced thioglycolate derived peritoneal macrophages. Chemokine and cytokine analyses were performed using the Mouse pro-inflammatory panels from Legendplex and their levels are presented as a percentage of the levels detected in the untreated control cells (Tables 6a and 6b). Data presented for compounds 51, 52, 53 refer to LPS stimulation of 100 ng/ml, while compounds E and F were tested upon LPS stimulation of 10 ng/ml.

[3] = tested on: SFs and PMCs; assay: Compound cytotoxicity, Crystal Violet assay
Procedure: The toxicity of the test compounds was assessed at several concentrations using the Crystal Violet assay on both SFs and PMCs. Adherent viable cells were Methanol fixed and stained with Crystal Violet. Optical density was quantified at […], as described in Feoktistova et al., 2016.

[4] = tested on: hTNFtg SFs; assay: Wound healing assay on activated SFs; settings: compound 10 μM, 24 h
Procedure: Activated SFs were isolated from hTNFtg mice as described above and they were seeded in 24 well plates at a concentration of 2×10^5 cells/well. The next day a straight-line wound was created on the formed cell monolayer using the tip of a 200 μl pipette. Images of the wounds were captured by microscope at a magnification of 4× at two time points. Time point 0 (i.e. the time of the creation of the wound) as well as 24 h later (t=24 h). The area of the wound was measured at each time point using the software ImageJ.
The percent closure of the wound was calculated using the following formula: [(wound area at t0−wound area at t24)/wound area at t0]*100
The assay for each compound was repeated four times.
The inventors wanted to further explore the potential of the test compounds to reduce the activated phenotype of the arthritogenic SFs and studied their effect on a wound healing assay. In this assay a wound is formed on a monolayer of SFs and the rate of closure of this wound is indicative of the proliferation and migration capacity of the SFs, i.e. the slower the closure of the wound, the less proliferative and migratory are the SFs.
The potential ability of the compounds 53, E and F to inhibit the proliferation and migration of activated SFs, was assessed at a concentration of 10 μM and the wound healing assay was performed using hTNFtg SFs, as these cells show increased proliferation and migration potential (Vasilopoulos et al., 2007). The data shown in Table 10 where the percentages of wound closure area are presented in hTNFtg untreated as well as compound treated cells.

Row | SMILES | GMCSF level, percentage of untreated control cells ([2]; LPS 100 ng/ml) [%] | IL1α level, percentage of untreated control cells ([2]; LPS 100 ng/ml) [%] | IL6 level, percentage of untreated control cells ([2]; LPS 100 ng/ml) [%] | IL12p70 level, percentage of untreated control cells ([2]; LPS 100 ng/ml) [%] | IL27 level, percentage of untreated control cells ([2]; LPS 100 ng/ml) [%] | MCP1 level, percentage of untreated control cells ([2]; LPS 100 ng/ml) [%] | MIP1β level, percentage of untreated control cells ([2]; LPS 100 ng/ml) [%] | Cell Toxicity [3] [µM] | EOTAXIN hTNFTg, percentage of level in untreated cells ([1]; compound 10 μM) [%] | KC hTNFTg, percentage of level in untreated cells ([1]; compound 10 μM) [%] | LIX hTNFTg, percentage of level in untreated cells ([1]; compound 10 μM) [%] | MCP1 hTNFTg, percentage of level in untreated cells ([1]; compound 10 μM) [%] | % of wound closure (mean ± SD) [4] [%] | MIP1β hTNFTg, percentage of level in untreated cells ([1]; compound 10 μM) [%] | CCL5 level, percentage of untreated control cells ([2]; LPS 10 ng/ml) [%] | IL6 level, percentage of untreated control cells ([2]; LPS 10 ng/ml) [%] | MCP1 level, percentage of untreated control cells ([2]; LPS 10 ng/ml) [%] | MDC level, percentage of untreated control cells ([2]; LPS 10 ng/ml) [%] | MIP1α level, percentage of untreated control cells ([2]; LPS 10 ng/ml) [%] | MIP1β level, percentage of untreated control cells ([2]; LPS 10 ng/ml) [%] | other results
1 | COc1cc(N)c(Cl)cc1C(=O)NCC1(c2ccc(Cl)cc2)CCCCC1 [Compound 51, 4-amino-5-chloro-N-((1-(4-chlorophenyl)cyclohexyl)methyl)-2-methoxybenzamide] | 80 | 36 | 44 | 54 | 77 | 27 | 90 | >100 | – | – | – | – | – | – | – | – | – | – | – | – | EOTAXIN hTNFTg, percentage of level in untreated cells ([1]; compound 25 μM): 24%; KC hTNFTg, percentage of level in untreated cells ([1]; compound 25 μM): 80%; LIX hTNFTg, percentage of level in untreated cells ([1]; compound 25 μM): 22%; MCP1 hTNFTg, percentage of level in untreated cells ([1]; compound 25 μM): 89%
2 | COc1cc(N)c(Cl)cc1C(=O)NCC1(c2ccc(Cl)cc2)CCCCCC1 [Compound 52, 4-amino-5-chloro-N-((1-(4-chlorophenyl)cycloheptyl)methyl)-2-methoxybenzamide] | 36 | 9 | 7 | 23 | 19 | 28 | 51 | >200 | 6 | 49 | 48 | 55 | – | – | – | – | – | – | – | – | –
3 | COc1cc(N)c(Cl)cc1C(=O)NCC1(Nc2ccc(Cl)cc2)CCCCCC1 [Compound 53, 4-amino-5-chloro-N-((1-((4-chlorophenyl)amino)cycloheptyl)methyl)-2-methoxybenzamide] | 38 | 30 | 15 | 18 | 75 | 75 | 67 | >100 | 9 | 49 | 40 | 49.5 | 67.7 ± 16.2 | 33 | – | – | – | – | – | – | CCL5 level, percentage of untreated control cells ([2]; LPS 100 ng/ml): 22%; MDC level, percentage of untreated control cells ([2]; LPS 100 ng/ml): 52%; MIP1α level, percentage of untreated control cells ([2]; LPS 100 ng/ml): 60%
4 | COc1cc(N)c(Cl)cc1C(=O)NCC1(Nc2ccc(F)cc2Cl)CCCCCC1 [E, 4-amino-5-chloro-N-((1-((2-chloro-4-fluorophenyl)amino)cycloheptyl)methyl)-2-methoxybenzamide] | – | – | – | – | – | – | – | >150 | 2.5 | 32 | 19.5 | 25.5 | 73 ± 31.5 | 24 | 8 | 8.8 | 9.3 | 54 | 50 | 41 | IC50 ([2]; LPS 10 ng/ml): 570 nM
5 | COc1cc(N)c(Cl)cc1C(=O)NCC1(Nc2cccc(OC(F)(F)F)c2)CCCCCC1 [F, 4-amino-5-chloro-2-methoxy-N-((1-((3-(trifluoromethoxy)phenyl)amino)cycloheptyl)methyl)benzamide] | – | – | – | – | – | – | – | >25 | 0 | 35 | 1 | 13.5 | 63 ± 11.8 | 12.5 | 2 | 5.3 | 9 | 47 | 45 | 26 | IC50 ([2]; LPS 10 ng/ml): 2670 nM
